Results as given in patent US20240270821A1, “GIP/GLP1/GCG TRI-RECEPTOR AGONISTS AND USES THEREOF” (priority 2023, published 2024).
Where two headings read alike, the source gives them in different places. Starred links: 1 amine or outer side, 2 acyl side, 3 side chain; linkers in the order of their positions; H or OH if unused. Non-standard residues stand in square brackets, D forms with d. Groups on a side chain read outwards from the residue. No end group written: not given here. *: point of attachment. C20 diacid = O=C(O)CCCCCCCCCCCCCCCCCCC(=O)*; C18 diacid = O=C(O)CCCCCCCCCCCCCCCCC(=O)*; Phe(4-CN) = N#Cc1ccc(C[C@H](N)C(=O)O)cc1; αMePhe(2-F) = C[C@](N)(Cc1ccccc1F)C(=O)O; γGlu = O=C(O)[C@H](CCC(=O)[*:2])N[*:1]; αMe4Pal = C[C@](N)(Cc1ccncc1)C(=O)O; αMeY = C[C@](N)(Cc1ccc(O)cc1)C(=O)O; 4Pal = N[C@@H](Cc1ccncc1)C(=O)O; αMeL = CC(C)C[C@](C)(N)C(=O)O; αMeS = C[C@](N)(CO)C(=O)O; Orn = NCCC[C@H](N)C(=O)O; AEEA = NCCOCCOCC(=O)O; Aib = CC(C)(N)C(=O)O

Legend:
Format in all cases: cell-based
[1] = target: human GcgR (Homo sapiens, UniProt P47871); test: Functional cAMP activity in the presence of 1% HSA; details: read-out: cAMP Rel EC50, hGcgR
[2] = target: T1, hGIPR (Homo sapiens, UniProt P48546); test: Functional cAMP activation in the presence of 0.1% casein (no HSA); details: read-out: Relative cAMP EC50, hGIPR;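 also: intracellular cAMP rise after 30 min at 37 °C read by HTRF against a standard curve, scaled between buffer alone (0%) and top control ligand concentration (100%), four-parameter fit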
T1 sequence (P48546 22-466): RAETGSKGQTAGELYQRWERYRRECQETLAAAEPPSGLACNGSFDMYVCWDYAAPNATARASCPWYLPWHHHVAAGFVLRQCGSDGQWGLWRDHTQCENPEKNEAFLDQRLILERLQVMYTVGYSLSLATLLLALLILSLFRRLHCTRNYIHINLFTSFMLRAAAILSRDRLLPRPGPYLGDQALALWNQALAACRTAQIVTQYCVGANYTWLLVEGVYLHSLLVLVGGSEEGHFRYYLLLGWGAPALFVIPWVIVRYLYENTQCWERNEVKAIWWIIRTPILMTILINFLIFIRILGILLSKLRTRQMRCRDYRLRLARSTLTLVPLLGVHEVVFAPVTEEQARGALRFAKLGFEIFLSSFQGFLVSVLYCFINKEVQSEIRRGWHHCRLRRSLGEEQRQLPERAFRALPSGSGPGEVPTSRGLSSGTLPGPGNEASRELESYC

[3] = target: T1, hGIPR; test: Functional cAMP activity in the presence of 1% HSA; details: read-out: cAMP Rel EC50, hGIPR
[4] = target: T2, hGLP-1R (Homo sapiens, UniProt P43220); test: Functional cAMP activity in the presence of 1% HSA; details: read-out: cAMP Rel EC50, hGLP-1R
[5] = target: T2, hGLP-1R; test: Functional cAMP activation in the presence of 0.1% casein (no HSA); details: read-out: Relative cAMP EC50, hGLP-1R;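 as to Relative cAMP EC50, hGLP-1R: intracellular cAMP rise after 30 min at 37 °C read by HTRF, normalized between buffer only (0%) and maximal control ligand (100%), four-parameter variable-slope fit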;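 as to Relative cAMP EC50, hGcgR: intracellular cAMP rise after 30 min at 37 °C, read by HTRF against a cAMP standard curve, scaled from buffer only (0%) to maximal control ligand response (100%)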
[6] = target: hGcgR (Homo sapiens, UniProt P47871); test: as above; details: read-out: Relative cAMP EC50, hGcgR;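 also: intracellular cAMP rise after 30 min at 37 °C, read by HTRF against a cAMP standard curve, scaled from buffer only (0%) to maximal control ligand response (100%)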
[7] = in the presence of 0.1% casein (no HSA), geometric mean
[8] = HEK-293 clonal cell line, in the presence of 1% HSA, geometric mean of relative EC50

Chain of hGcgR (P47871 26-477): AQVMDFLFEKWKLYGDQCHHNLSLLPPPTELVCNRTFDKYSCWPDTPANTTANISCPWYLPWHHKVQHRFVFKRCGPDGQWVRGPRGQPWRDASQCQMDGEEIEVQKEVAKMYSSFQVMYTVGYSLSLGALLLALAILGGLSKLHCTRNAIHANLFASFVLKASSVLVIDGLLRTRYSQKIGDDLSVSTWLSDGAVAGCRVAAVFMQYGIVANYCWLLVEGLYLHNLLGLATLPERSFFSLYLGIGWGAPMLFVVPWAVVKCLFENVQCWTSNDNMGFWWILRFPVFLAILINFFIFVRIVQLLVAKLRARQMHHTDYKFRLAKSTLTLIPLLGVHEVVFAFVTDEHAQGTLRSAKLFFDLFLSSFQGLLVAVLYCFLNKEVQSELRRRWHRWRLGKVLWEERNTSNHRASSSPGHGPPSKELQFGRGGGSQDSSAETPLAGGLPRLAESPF
Chain of human GcgR (P47871 26-477): as above
T2 sequence (P43220 24-463): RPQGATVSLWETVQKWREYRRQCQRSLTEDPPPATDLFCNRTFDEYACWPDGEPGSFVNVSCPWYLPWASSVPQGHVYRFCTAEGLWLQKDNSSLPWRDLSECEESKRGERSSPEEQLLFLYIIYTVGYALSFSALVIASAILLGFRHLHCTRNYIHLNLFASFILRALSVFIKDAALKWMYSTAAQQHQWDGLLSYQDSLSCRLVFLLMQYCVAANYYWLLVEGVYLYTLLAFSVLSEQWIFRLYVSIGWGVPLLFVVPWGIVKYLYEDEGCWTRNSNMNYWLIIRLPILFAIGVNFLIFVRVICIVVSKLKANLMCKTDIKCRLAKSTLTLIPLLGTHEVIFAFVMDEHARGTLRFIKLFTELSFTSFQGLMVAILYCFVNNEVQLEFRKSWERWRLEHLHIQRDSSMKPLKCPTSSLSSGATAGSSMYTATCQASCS

Substance | EC50 [1] | EC50 [2] | EC50 [3] | EC50 [4] | EC50 [5] | EC50 [6] | EC50 [2, 7] | EC50 [5, 7] | EC50 [6, 7] | EC50 [1, 8] | EC50 [3, 8] | EC50 [4, 8]
Y[Aib]QGT[αMePhe(2-F)]TSD[4Pal][αMeS]I[αMeL]LD[Orn]K([γGlu-γGlu-C18 diacid])AQ[Aib]NFI[dE][αMeY]LQEGGPSSGEPPPEGTE-NH2 [Example 526] | 530 nM | 0.0364 nM | 2.12 nM | 22.9 nM | 0.421 nM | 8.62 nM |  |  |  |  |  | 
H-Y[Aib]QGTFTSDYSI[αMeL]LDKQAAK([AEEA-AEEA-γGlu-C20 diacid])AFVEWLLA[Aib]GPSSGEPPPSEG-NH2 [Example 317] | 1500 nM |  | 62.8 nM | 234 nM |  |  | 0.474 nM | 1.32 nM | 2.42 nM |  |  | 
H-Y[Aib]QGTFTSD[4Pal]SQ[αMeL]LD[Orn]K([γGlu-γGlu-C18 diacid])AQ[αMe4Pal]AFIEYLIAGGPSSGEPPPSGTEEE-NH2 [Example 986] |  |  |  |  |  |  | 0.299 nM | 3.06 nM | 4.94 nM | 702 nM | 31.3 nM | 380 nM
H-Y[Aib]QGTFTSD[Phe(4-CN)]S[Orn][αMeL]LDKK([AEEA-AEEA-γGlu-C18 diacid])AQ[Aib]AFIEYLLE[Aib]GPSSGAPPPSGS-NH2 [Example 178] | 816 nM |  | 47.3 nM | 397 nM |  |  | 0.34 nM | 4.01 nM | 7.29 nM |  |  | 
H-Y[Aib]QGTFTSDFS[Orn][αMeL]LDKK([AEEA-γGlu-C18 diacid])AQ[Aib]AFIEWLLEGGHSSGAPPPSGH-NH2 [Example 269] | 1100 nM |  | 21.9 nM | 428 nM |  |  | 0.288 nM | 3.23 nM | 7.69 nM |  |  | 
Y[Aib]QGTFTSD[4Pal]SQ[αMeL]LD[Orn]K([AEEA-γGlu-γGlu-C18 diacid])AQ[αMe4Pal]AFIEYLIE[dA]GPSSGAPPPSGS-NH2 [Example 1016] | 626 nM |  | 30.6 nM | 156 nM |  |  | 0.218 nM | 1.55 nM | 5.57 nM |  |  | 

Further lines, results first:

EC50 [1] | EC50 [2] | EC50 [3] | EC50 [4] | EC50 [5] | EC50 [6] | EC50 [2, 7] | EC50 [5, 7] | EC50 [6, 7] | EC50 [1, 8] | EC50 [3, 8] | EC50 [4, 8] | Substance
427 nM | 0.161 nM | 4.84 nM | 51 nM | 0.705 nM | 5.5 nM |  |  |  |  |  |  | H-Y[Aib]QGT[αMePhe(2-F)]TSD[4Pal][αMeS]ILLD[Orn]K([γGlu-γGlu-C18 diacid])AQ[Aib][Orn]FI[dE]YLIEGGPSSGEPPPEGAEE-NH2 [Example 604]
902 nM |  | 87.3 nM | 963 nM |  |  | 0.555 nM | 5.22 nM | 4.83 nM |  |  |  | H-Y[Aib]QGTFTSDFS[Orn][αMeL]LDKK([AEEA-γGlu-C18 diacid])AQ[Aib]AFIEYLLEGGESSGAPPPGGS-NH2 [Example 161]
1370 nM |  | 25.8 nM | 295 nM |  |  | 0.154 nM | 1.6 nM | 13.7 nM |  |  |  | Y[Aib]QGTFTSD[4Pal]SK[αMeL]LDKK([AEEA-γGlu-C18 diacid])AQ[Aib]AFIEYLIE[Aib]GESSGEPPPSGE-NH2 [Example 281]
3080 nM |  | 53.7 nM | 222 nM |  |  | 0.127 nM | 0.634 nM | 11 nM |  |  |  | H-Y[Aib]QGT[αMePhe(2-F)]TSD[Phe(4-CN)]SILLDKQAQK([AEEA-AEEA-γGlu-C20 diacid])AFIQYLLEGGPSSGEPPPSEG-NH2 [Example 353]
